Data on one molecule can be found in patent US9365511B2, “Biphenyl-ethyl-pyrrolidine derivatives as histamine H3 receptor modulators for the treatment of cognitive disorders” (Arena Pharmaceuticals, Inc., priority 2013, dated 2016).

Entries after “also recorded” stand apart in the source; their conditions may differ. Where two headings read alike, the source gives them in different places.

In series [1] the test system is histamine-induced scratching behavior in mice. Briefly: Histamine-induced model for pruritus (Example 5). The note with it: oral administration, histamine 3 μmol s.c. 30 min post-dosing, bouts counted 0-30 min, FIG. 5. Type of series: in vivo, C57BL/6 mice. The method, then: C57BL/6 mice (9 per group) were administered with either vehicle (0.5% Methocellulose) or Compound 3. Thirty minutes post-dosing, the mice were injected with histamine (3 μmol) subcutaneously and placed in a clear observation box. Mice were video recorded and the number of scratching bouts that occurred between 0 and 30 minutes was counted after histamine injection.

A short description of series [2]: Brain to plasma ratio determination in male C57BL6 mouse. It counts as in vivo, Male C57BL6 mice. The protocol:
Male C57BL6 mice were administered Compound 3 at 3 mg/kg by either intraperitoneal injection (IP) or oral gavage (PO). Plasma and brain samples were collected at 0.5 and 2.0 h post-dose. Blood samples were collected via eye bleed, followed by decapitation and extraction of the brain from the cranial cavity. Blood was treated with 0.5% EDTA; plasma was separated by centrifugation. Brain tissue was placed in ice-cold containers. Plasma and brain samples were frozen at approximately −70° C. until assayed at Arena Pharmaceuticals. Compound 3 plasma and brain concentrations were determined by LC/MS/MS. The lower limit of quantitation (i.e., LLQ) was 25.0 and 3.0 ng/mL for plasma and brain, respectively.

Series [3] relates to histamine-induced scratching behavior in mice. As to the kind of experiment: Histamine-induced model for pruritus (Example 6). Type of series: in vivo, C57BL/6j male mice. To be noted: oral administration, histamine s.c. 30 min post-dosing, bouts counted 5-15 min, FIG. 6. The protocol:
H3R inhibitors, Compound 3 and Compound 11, were dissolved in 0.5% methylcellulose at the appropriate concentration and 100 μL were administered orally to 8-week-old C57BL/6j male mice. Thirty minutes post-dosing, 25 μL of 40 mg/mL histamine solution was injected subcutaneously at the rostral part of the back. Mice were video recorded and the number of scratching bouts that occurred between 5 and 15 minutes was counted after histamine injection.

The next series addresses human H3 receptor (Homo sapiens (Human), UniProt Q9Y5N1). As to the kind of experiment: Human H3 receptor HTRF cAMP assay. Type of series: cell-based. The note with it: HEK293 cells expressing the human H3 receptor, forskolin 2 μM; read-out: IC50 H3R. The text has this: Homogeneous time-resolved fluorescence assays (HTRF®, Cisbio) detect levels of cAMP in lysed cell preparations using a europium or terbium cryptate-labeled anti-cAMP antibody and fluorophore-labeled cAMP (cAMP-d2). In the absence of exogenous cAMP, the anti-cAMP antibody binds to cAMP-d2. Photoexcitation of the cryptate donor results in a combination of cryptate emission at 620 nm and fluorescence resonance energy transfer (FRET) from the cryptate to the acceptor d2 fluorophore, which then fluoresces at 665 nm. The 620/665 nm emission ratio is monitored. In the presence of exogenous cAMP, which competes with cAMP-d2 for binding to the anti-cAMP antibody, FRET is decreased and the […], providing a sensitive and accurate means to measure cAMP levels in biological assays.
Compounds of the present invention were evaluated using the human H3 receptor (H3R) HTRF cAMP assay. In this assay, HEK293 cells expressing the human H3 receptor were suspended in PBS containing 100 μM IBMX and plated into 384-well assay plates (Perkin Elmer Proxiplate 384-Plus; 15,000 cells per well; 5 μL plating volume) and allowed to equilibrate for an hour. Test compounds were serially diluted in 100% DMSO and then further diluted in PBS containing forskolin (2 μM). Test compounds (5 μL) were then added to the assay plate and the mixture was incubated for 1 hour. HTRF assay reagents (Cisbio, Dynamic 2 cAMP Kit), cAMP-d2 and cryptate-labeled anti-cAMP antibody, are mixed with cell lysis buffer and added to the assay plate. After 1-hour incubation with these reagents, the assay plate was read on an HTRF-compatible microplate reader (Perkin Elmer EnVision or BMG Pherastar). A cAMP standard curve was included on each assay plate and HTRF emission ratios for test compounds were fit to this curve to generate accurate measures of cAMP levels in each test well.
On the technique in general: TR-FRET usually uses a lanthanide donor and a delayed reading to cut background.

human H3 receptor, sequence (Q9Y5N1 whole entry): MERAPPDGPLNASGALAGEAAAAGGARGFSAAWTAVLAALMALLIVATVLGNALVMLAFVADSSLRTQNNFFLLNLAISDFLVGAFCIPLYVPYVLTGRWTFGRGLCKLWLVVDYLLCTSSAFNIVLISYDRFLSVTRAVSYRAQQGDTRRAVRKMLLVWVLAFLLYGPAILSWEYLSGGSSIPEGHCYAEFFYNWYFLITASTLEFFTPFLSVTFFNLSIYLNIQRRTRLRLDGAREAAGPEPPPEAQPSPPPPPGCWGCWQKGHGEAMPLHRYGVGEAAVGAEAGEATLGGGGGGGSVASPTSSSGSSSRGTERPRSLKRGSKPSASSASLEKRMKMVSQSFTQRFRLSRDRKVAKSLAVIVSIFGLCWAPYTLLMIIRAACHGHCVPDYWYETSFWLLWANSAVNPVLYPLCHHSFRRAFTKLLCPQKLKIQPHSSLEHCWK

In general, Kp refers to the ratio of the level in a tissue or fluid to that in plasma or blood. Usually IC50 stands for the concentration that inhibits the measured activity by half. As for `C[C@@H]1CCCN1CCc1ccc(-c2ccc(CCC(=O)O)cc2)cc1` [Compound 3, (R)-3-(4′-(2-(2-Methylpyrrolidin-1-yl)ethyl)biphenyl-4-yl)propanoic Acid], the “histamine-induced scratching behavior (number of scratching bouts)” value is “effectively inhibits histamine-induced pruritus; also recorded: inhibit histamine-induced scratching behavior” in series [1] and “effectively inhibit histamine-induced pruritus; also recorded: inhibit histamine-induced scratching behavior” in series [3]. Besides, the concentration at 0.5 h in series [2] (C57BL6, brain, 3 mg/kg PO, 0.5 h post-dose, read-out: brain concentration) came out at 39.8 ± 22.7 ng/g; in series [2] (C57BL6, brain, intraperitoneal, 3 mg/kg IP, 0.5 h post-dose, read-out: brain concentration), 71.7 ± 10.7 ng/g; in series [2] (C57BL6, plasma, 3 mg/kg PO, 0.5 h post-dose, read-out: plasma concentration) it was 1080 ± 487 ng/mL; in series [2] (C57BL6, plasma, intraperitoneal, 3 mg/kg IP, 0.5 h post-dose, read-out: plasma concentration), 1350 ± 104 ng/mL. The concentration at 2 h stood at 29.1 ± 7 ng/g in series [2] (C57BL6, brain, 3 mg/kg PO, 2.0 h post-dose, read-out: brain concentration); 17.2 ± 7.5 ng/g in series [2] (C57BL6, brain, intraperitoneal, 3 mg/kg IP, 2.0 h post-dose, read-out: brain concentration); 619 ± 185 ng/mL in series [2] (C57BL6, plasma, 3 mg/kg PO, 2.0 h post-dose, read-out: plasma concentration); 364 ± 135 ng/mL in series [2] (C57BL6, plasma, intraperitoneal, 3 mg/kg IP, 2.0 h post-dose, read-out: plasma concentration). In addition, the concentration ratio (Kp) in series [2] (C57BL6, brain/plasma, 3 mg/kg IP, independent of time) is approximately 0.05. Moreover, the Kp at 0.5 h in series [2] (C57BL6, brain/plasma, 3 mg/kg PO, 0.5 h post-dose) came out at 0.04. Further, in series [2] (C57BL6, brain/plasma, 3 mg/kg PO, 2.0 h post-dose), the Kp at 2 h is 0.05. The half-inhibitory concentration (IC50) at human H3 receptor stood at 2.5 nM.
